Experimental data reported in publication PMC6934184, “Selective DNA-PKcs inhibition extends the therapeutic index of localized radiotherapy and chemotherapy” (The Journal of Clinical Investigation, 2019).

Target: T1, EGFR (ErbB1) d746-750 (Homo sapiens, UniProt P00533, DEL746-750)
T1 construct: purchased Thermo Fisher Scientific (Life Technologies) SelectScreen
Experiment: SelectScreen LanthaScreen
Assay type: binding
Conditions: 1 µM
How it was run: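 NU5455 was profiled across the SelectScreen Broad panel of kinase activity and binding assays. Z'LYTE reactions such as CSF1R ran at apparent Km ATP, while the Adapta CAMK1 assay used ATP listed as 10. Values are given as percent.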

T1 sequence (P00533 with tags, fused parts or gaps DEL746-750 limits assumed): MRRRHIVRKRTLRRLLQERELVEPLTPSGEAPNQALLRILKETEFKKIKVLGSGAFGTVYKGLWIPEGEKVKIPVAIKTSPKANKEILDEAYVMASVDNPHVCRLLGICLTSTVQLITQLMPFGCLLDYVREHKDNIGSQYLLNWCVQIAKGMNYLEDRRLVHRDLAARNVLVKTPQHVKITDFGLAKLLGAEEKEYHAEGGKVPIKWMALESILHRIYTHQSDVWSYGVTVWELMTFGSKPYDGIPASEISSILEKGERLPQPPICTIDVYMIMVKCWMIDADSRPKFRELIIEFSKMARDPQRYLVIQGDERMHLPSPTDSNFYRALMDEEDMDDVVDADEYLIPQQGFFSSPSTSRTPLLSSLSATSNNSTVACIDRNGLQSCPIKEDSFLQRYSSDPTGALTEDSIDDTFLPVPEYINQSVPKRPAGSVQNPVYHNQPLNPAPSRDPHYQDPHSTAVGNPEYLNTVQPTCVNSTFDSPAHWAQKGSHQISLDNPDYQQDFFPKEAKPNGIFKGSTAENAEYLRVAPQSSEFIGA

Question: For `CN(C(=O)CN1CCOCC1)c1ccc2sc3c(-c4cccc5c(=O)cc(N6CC7CCC(C6)O7)oc45)cccc3c2c1` [NU5455], which “% displacement” value is on record?
Answer: The value was 5.8%.
